The values that follow come from patent publication US7815803B2, “Preparation of samples for LC-MS/MS using magnetic particles” (Roche Diagnostics Operations, Inc., priority 2007, dated 2010).

The conditions of data set [1]: in vivo; cited from earlier work.
The conditions of data set [2]: in vitro; cited from earlier work.
Data set [3] in a line: Pooled serum from itraconazole treated patients, LC-MS/MS validation. In kind it is in vivo, human. Conditions: n=9. Here is the method: A validation protocol was performed in three independent analytical series. In each series a five-point calibration was performed using a commercially available calibration material for itraconazole measurement (2,000 μg/l, 1,000 μg/l, 500 μg/l, 250 μg/l, and 125 μg/l; Recipe, Munich, Germany). Aliquots of pooled serum from itraconazole treated patients were analyzed in triplicate in each series to calculate a total coefficient of variation (n=9). Commercially available quality control materials (ClinCheck, Recipe, Munich, Germany) in two concentration ranges (target concentrations 150 μg/l, and 2,900 μg/l) were analyzed in the three series.
Linear calibration lines (r>0.99) were obtained in all series. For the pooled serum a total coefficient of variation of 3.4% was observed (mean concentration 380 μg/l); all quality control samples were found within the predefined accepted ranges (±10% of the target concentrations).

For the compound `COc1c(C)c2c(c(O)c1C/C=C(\C)CCC(=O)OCCN1CCOCC1)C(=O)OC2` [Mycophenolate mofetil, mycophenolate mofetil], the therapeutic trough concentration in data set [1] was 1000 to 3500 µg/L. For `CO[C@H]1C[C@@H]2CC[C@@H](C)[C@@](O)(O2)C(=O)C(=O)N2CCCC[C@H]2C(=O)O[C@H]([C@H](C)C[C@@H]2CC[C@@H](O)[C@H](OC)C2)CC(=O)[C@H](C)/C=C(\C)[C@@H](O)[C@@H](OC)C(=O)[C@H](C)C[C@H](C)/C=C/C=C/C=C/1C` [Sirolimus, sirolimus], the therapeutic trough concentration in data set [1] was 5 to 15 µg/L. Regarding `C=CC[C@@H]1/C=C(\C)C[C@H](C)C[C@H](OC)[C@H]2O[C@@](O)(C(=O)C(=O)N3CCCC[C@H]3C(=O)O[C@H](/C(C)=C/[C@@H]3CC[C@@H](O)[C@H](OC)C3)[C@H](C)[C@@H](O)CC1=O)[C@H](C)C[C@@H]2OC` [Tacrolimus, tacrolimus], the “potency relative to cyclosporin” value in data set [2] was “up to 100 times”. Moreover, the therapeutic trough concentration in data set [1] is 5 to 20 µg/L.

In the case of `CCC(C)n1ncn(-c2ccc(N3CCN(c4ccc(OCC5COC(Cn6cncn6)(c6ccc(Cl)cc6Cl)O5)cc4)CC3)cc2)c1=O` (centres unmarked) [itraconazole], in data set [3], the “mean concentration in pooled serum” value is 380 ng/mL.
